Consider two sequences from US10961279B2 (priority 2011, dated 2021).

For the assay, the system named is CTLL-2 cells. The assay is classed as cell-based.

As to GLFGAAGFIENGWEGCGGEKEKEK [non-IS #1], the “effect of the dimeric peptides on proliferation of CTLL-2 cells (synthesis of new DNA)” value was “much less”.

GLFAGFIENGWEGCGGEKEKEK [non-IS #2]: the “effect of the dimeric peptides on proliferation of CTLL-2 cells (synthesis of new DNA)” value is recorded as “no significant effect”.
